Test results as given in paper PMC9249726 (Clinical Pharmacokinetics, 2022).
Like-named read-outs stand apart in the source and are kept apart here.

Tests used:
[1] = cited from earlier work
[2] = Safety and tolerability of single oral dose milvexian 60 mg; format: in vivo, human; conditions: single oral 60 mg, all groups, in words
Plasma protein binding = format: in vitro ADME, human; conditions: for fraction unbound: human, plasma, oral, 60 mg, geometric mean (geometric CV)
[3] = milvexian 60 mg; ref previous studies; cited from earlier work
[4] = system: activated partial thromboplastin time (aPTT); assay: Pharmacodynamic biomarker aPTT after single-dose milvexian 60 mg; format: in vivo, human; conditions: for Time at which mean aPTT returned to baseline: post-dose; for Maximal percentage increase from baseline in aPTT: single oral 60 mg
[5] = animal studies; no reference given; cited from earlier work
[6] = system: cytochrome P450 (CYP)-3A4; conditions: in words; no reference given; cited from earlier work
[7] = for increase in exposure, AUC(INF) / increase in exposure, Cmax: mild or moderate hepatic impairment compared with normal hepatic function

Which “AUC increase in participants with moderate hepatic impairment” value ([1]; apixaban 5 mg) does the source give for `COc1ccc(-n2nc(C(N)=O)c3c2C(=O)N(c2ccc(N4CCCCC4=O)cc2)CC3)cc1` [apixaban] here?
Its value is 1.09 fold.

With `C[C@@H]1CCC[C@H](n2cnc(-c3cc(Cl)ccc3-n3cc(Cl)nn3)cc2=O)c2cc(ccn2)-c2c(cnn2C(F)F)NC1=O` [milvexian] as the molecule, how does the “bleeding AEs” value [2] read?
The value was “no bleeding AEs”.

And the “deaths, SAEs, discontinuations due to AEs” value [2]?
The value was “no serious adverse events (AEs), bleeding AEs, or discontinuations due to AEs”.

And the drug-induced liver injury [2]?
Its drug-induced liver injury is “no reports of drug-induced liver injury”.

And the “deaths, SAEs, discontinuations due to AEs” value ([2]; listed as Milvexian)?
Its value is “no deaths, SAEs, or treatment discontinuations due to AEs”.

What about the fraction unbound (Plasma protein binding; mild hepatic impairment (n = 9)) of the same molecule?
The fraction unbound was 0.0852.

And the fraction unbound (Plasma protein binding; moderate hepatic impairment (n = 8))?
The fraction unbound was 0.0955.

And the fraction unbound (Plasma protein binding; normal hepatic function (n = 9))?
Its fraction unbound is 0.0775.

And the Plasma protein binding (Plasma protein binding; in words)?
The Plasma protein binding was “moderate to high”.

What about the “geometric mean fraction of unbound milvexian” value (Plasma protein binding; mild hepatic impairment) of the same molecule?
Its value is 8.52%.

And the “geometric mean fraction of unbound milvexian” value (Plasma protein binding; moderate hepatic impairment)?
The value was 9.55%.

And the “geometric mean fraction of unbound milvexian” value (Plasma protein binding; normal hepatic function)?
Its value is 7.75%.

And the “expected variability in pharmacokinetics” value [3]?
The value was ~ 20%.

What about the “Time at which mean aPTT returned to baseline” value (from here on “Time”) ([4]; mild hepatic impairment) of the same molecule?
The value was no more than 48 h.

And the “Maximal percentage increase from baseline in aPTT” value ([4]; mild hepatic impairment)?
The value was “approximately 90%”.

And the “Time” value ([4]; moderate hepatic impairment)?
The value was “approximately 72 h”.

What about the “Maximal percentage increase from baseline in aPTT” value ([4]; moderate hepatic impairment) of the same molecule?
Its value is “approximately 90%”.

What about the “Time” value ([4]; normal hepatic function) of the same molecule?
Its value is no more than 48 h.

And the “increase in aPTT” value ([4]; participants with hepatic impairment (mild or moderate), single dose 60 mg)?
Its value is 90%.

What about the direct biliary excretion [5] of the same molecule?
Its direct biliary excretion is ~ 30 % of the dose.

What about the excretion through metabolism [5] of the same molecule?
The excretion through metabolism was 40–50 % of the administered dose.

And the metabolising enzymes [6]?
The metabolising enzymes was “predominantly metabolized by cytochrome P450 (CYP)-3A4, with minor contributions from CYP3A5”.

What about the “variability in pharmacokinetics observed in this study” value ([7]; milvexian 60 mg, group with normal hepatic function) of the same molecule?
The value was greater than 50%.

And the “increase in exposure, AUC(INF)” value ([7]; total milvexian)?
The value was “up to 18%”.

What about the “increase in exposure, Cmax” value ([7]; total milvexian) of the same molecule?
The value was “up to 18%”.

And the “increase in exposure, AUC(INF)” value ([7]; unbound milvexian)?
Its value is “up to 30%”.

What about the “increase in exposure, Cmax” value ([7]; unbound milvexian) of the same molecule?
Its value is “up to 40%”.

For `O=C(NC[C@H]1CN(c2ccc(N3CCOCC3=O)cc2)C(=O)O1)c1ccc(Cl)s1` [rivaroxaban], which “AUC increase in participants with moderate hepatic impairment” value ([1]; rivaroxaban 10 mg) is on record?
The value was 2.27 fold.
